The target in the assay is T1, sphingosine kinase-2 (SK2) (Homo sapiens, UniProt Q9NRA0).
T1 construct: gene SPHK2
T1 sequence (Q9NRA0 1-654): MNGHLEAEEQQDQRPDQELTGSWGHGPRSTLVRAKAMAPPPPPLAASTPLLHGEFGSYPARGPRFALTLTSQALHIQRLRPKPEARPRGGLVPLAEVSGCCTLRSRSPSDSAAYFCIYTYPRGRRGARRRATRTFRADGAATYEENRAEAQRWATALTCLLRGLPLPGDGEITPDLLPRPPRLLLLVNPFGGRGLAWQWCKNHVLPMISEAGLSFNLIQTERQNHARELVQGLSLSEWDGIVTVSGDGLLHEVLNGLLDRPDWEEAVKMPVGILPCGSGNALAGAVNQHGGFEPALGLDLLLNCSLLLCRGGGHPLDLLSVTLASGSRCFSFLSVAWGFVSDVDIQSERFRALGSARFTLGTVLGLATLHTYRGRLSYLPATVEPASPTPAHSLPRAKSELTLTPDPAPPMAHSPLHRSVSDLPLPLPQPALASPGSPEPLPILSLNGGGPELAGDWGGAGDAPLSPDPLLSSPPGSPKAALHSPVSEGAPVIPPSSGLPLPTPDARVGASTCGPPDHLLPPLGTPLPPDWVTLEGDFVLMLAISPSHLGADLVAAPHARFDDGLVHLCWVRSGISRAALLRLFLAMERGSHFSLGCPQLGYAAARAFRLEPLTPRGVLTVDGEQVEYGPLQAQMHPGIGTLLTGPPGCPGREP
Nature of the assay: SK2 kinase inhibition IC50 (details in ESI). Format: biochemical.

With `O=C(NCc1ccncc1)C12CC3CC(C1)CC(c1ccc(Cl)cc1)(C3)C2` [Opaganib®, Opaganib], 15.8 ± 3 µM corresponded to half-maximal inhibition (IC50).
